Data published in patent US12281122B1, “PI3K inhibitors” (Cogent Biosciences, Inc., priority 2023, dated 2025).

Key:
[1] = test system: SKBR3 (PI3Kα-Wild Type) cell line; experiment: HTRF phospho-AKT(S473) cell assay in SKBR3 cells; format: cell-based, human; conditions: Homo sapiens, SK-BR-3; SKBR3 (PI3Kα-Wild Type) cells, HTRF phospho-AKT(S473), 2 hours compound incubation, PDGF-BB stimulated
Outline: (§1)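 T47D (PI3Kα-H1047R; RPMI, 10% FBS, insulin) and SKBR3 (wild-type PI3Kα; McCoy's 5A, 10% FBS) cells treated 2 h at 37 °C with 12-point 1:3 dilutions, top 5 μM and 10 μM respectively, ≤0.5% DMSO. SKBR3 stimulated with 70 ng/ml PDGF-BB for the last 15 min; lysate pAKT(S473) by HTRF, IC50 from curves.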

[2] = test system: T47D (PI3Kα-H1047R) cell line; experiment: HTRF phospho-AKT(S473) cell assay in T47D cells; format: cell-based, human; conditions: Homo sapiens; T47D (PI3Kα-H1047R) cells, HTRF phospho-AKT(S473), 2 hours compound incubation
Outline: as §1

PI3Kα H1047R = PI3Kα H1047R (Homo sapiens, UniProt P42336, H1047R); experiment: PI3Kα H1047R enzyme assay (Transcreener ADP2 TR-FRET Red Assay); format: biochemical; conditions: purified recombinant full-length protein; 2 hours pre-incubation with compound
Sequence of PI3Kα H1047R (P42336 whole entry H1047R): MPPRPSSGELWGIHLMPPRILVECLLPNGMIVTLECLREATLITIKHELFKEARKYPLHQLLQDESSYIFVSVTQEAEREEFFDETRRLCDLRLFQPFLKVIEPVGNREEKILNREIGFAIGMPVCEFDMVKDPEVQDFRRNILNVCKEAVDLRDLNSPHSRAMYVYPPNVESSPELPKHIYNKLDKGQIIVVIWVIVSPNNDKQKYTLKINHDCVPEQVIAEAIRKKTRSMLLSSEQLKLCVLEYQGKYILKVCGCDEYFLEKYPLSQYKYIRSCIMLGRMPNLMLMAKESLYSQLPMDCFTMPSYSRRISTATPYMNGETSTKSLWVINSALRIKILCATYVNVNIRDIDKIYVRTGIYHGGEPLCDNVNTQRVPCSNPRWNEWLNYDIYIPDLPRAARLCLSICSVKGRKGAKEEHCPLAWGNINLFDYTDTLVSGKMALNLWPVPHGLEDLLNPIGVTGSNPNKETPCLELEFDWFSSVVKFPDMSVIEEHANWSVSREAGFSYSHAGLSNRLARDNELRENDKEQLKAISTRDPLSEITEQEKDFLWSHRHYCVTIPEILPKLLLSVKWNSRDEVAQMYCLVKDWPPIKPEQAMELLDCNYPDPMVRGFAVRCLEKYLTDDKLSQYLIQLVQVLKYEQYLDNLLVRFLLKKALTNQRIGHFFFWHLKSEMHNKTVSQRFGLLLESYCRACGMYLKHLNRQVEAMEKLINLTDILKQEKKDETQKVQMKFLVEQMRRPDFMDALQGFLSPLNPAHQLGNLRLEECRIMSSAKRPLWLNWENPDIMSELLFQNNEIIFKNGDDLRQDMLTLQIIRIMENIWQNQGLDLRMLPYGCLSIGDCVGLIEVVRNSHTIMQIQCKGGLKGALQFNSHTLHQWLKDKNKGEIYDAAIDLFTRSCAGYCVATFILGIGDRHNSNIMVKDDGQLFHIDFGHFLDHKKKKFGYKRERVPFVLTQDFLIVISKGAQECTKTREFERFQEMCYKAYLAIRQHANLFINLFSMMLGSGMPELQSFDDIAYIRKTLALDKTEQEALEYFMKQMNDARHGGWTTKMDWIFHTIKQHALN
Sequence of PI3Kα H1047R (P27986 2-724 partner): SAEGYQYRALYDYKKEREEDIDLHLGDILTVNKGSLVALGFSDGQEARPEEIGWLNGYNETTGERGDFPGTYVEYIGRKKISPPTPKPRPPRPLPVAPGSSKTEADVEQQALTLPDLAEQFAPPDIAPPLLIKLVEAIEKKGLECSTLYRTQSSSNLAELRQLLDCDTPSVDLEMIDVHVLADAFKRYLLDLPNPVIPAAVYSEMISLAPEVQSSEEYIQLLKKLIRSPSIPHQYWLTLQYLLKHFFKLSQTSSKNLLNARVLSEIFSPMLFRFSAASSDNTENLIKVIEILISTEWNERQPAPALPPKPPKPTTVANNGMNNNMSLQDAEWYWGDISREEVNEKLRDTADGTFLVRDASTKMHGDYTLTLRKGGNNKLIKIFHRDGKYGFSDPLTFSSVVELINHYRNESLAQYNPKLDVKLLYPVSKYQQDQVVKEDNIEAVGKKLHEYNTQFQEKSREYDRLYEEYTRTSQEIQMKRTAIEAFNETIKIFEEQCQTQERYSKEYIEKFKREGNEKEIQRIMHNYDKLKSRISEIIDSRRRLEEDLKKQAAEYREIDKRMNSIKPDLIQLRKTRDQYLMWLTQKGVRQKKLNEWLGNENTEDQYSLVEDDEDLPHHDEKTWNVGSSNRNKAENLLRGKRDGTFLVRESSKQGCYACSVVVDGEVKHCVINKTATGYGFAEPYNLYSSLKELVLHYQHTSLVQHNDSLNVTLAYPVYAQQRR
Outline: (§2)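 Purified recombinant full-length enzymes pre-incubated 2 h at room temperature with compounds (11-point 1:3 dilutions, typically 50,000–0.85 nM), then started with ATP/PI(4,5)P2 diC8 and run 60 min at room temperature in 40 mM HEPES pH 7.5, 20 mM NaCl, 25 mM MgCl2, 0.01% Triton X-100. ADP detected by TR-FRET 665/615 ratio; IC50 from four-parameter fit of percent of control.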

PI3Kα = PI3Kα (Homo sapiens, UniProt P42336); experiment: PI3Kα enzyme assay (Transcreener ADP2 TR-FRET Red Assay); format: biochemical; conditions: purified recombinant full-length protein; 2 hours pre-incubation with compound; read-out: PI3Kα WT IC50
Sequence of PI3Kα (P42336 whole entry): as the sequence (P42336 whole entry H1047R) above, with R1047H counted along it
Sequence of PI3Kα (P27986 2-724 partner): as the sequence (P27986 2-724 partner) above
Outline: as §2

IC50 [1] [nM]	IC50 [2] [nM]	IC50 (PI3Kα H1047R) [nM]	IC50 (PI3Kα) [nM]	Structure (SMILES)
≥ 5000	1000 to 5000	≥ 1000	≥ 1000	Cc1cc([C@@H](C)Nc2ccccc2S(=O)(=O)NC(=O)C(F)F)c2nc(N3Cc4ccc(F)cc4C3)n(C)c(=O)c2c1 [Compound 75, (R)-2,2-difluoro-N-((2-((1-(2-(5-fluoroisoindolin-2-yl)-3,6-dimethyl-4-oxo-3,4-dihydroquinazolin-8-yl)ethyl)amino)phenyl)sulfonyl)acetamide]
1000 to 5000	250 to 500	< 100	≥ 1000	Cc1cc([C@@H](C)Nc2ccc(Cl)nc2S(N)(=O)=O)c2nc(N3Cc4ccc(F)cc4C3)n(C)c(=O)c2c1 [Compound 76, (R)-6-chloro-3-((1-(2-(5-fluoroisoindolin-2-yl)-3,6-dimethyl-4-oxo-3,4-dihydroquinazolin-8-yl)ethyl)amino)pyridine-2-sulfonamide]
≥ 5000	1000 to 5000	≥ 1000	≥ 1000	CC(=O)NS(=O)(=O)c1nc(Cl)ccc1N[C@H](C)c1cc(F)cc2c(=O)n(C)c(N3CCC(F)(F)CC3)nc12 [Compound 77, (R)-N-((6-chloro-3-((1-(2-(4,4-difluoropiperidin-1-yl)-6-fluoro-3-methyl-4-oxo-3,4-dihydroquinazolin-8-yl)ethyl)amino)pyridin-2-yl)sulfonyl)acetamide]
1000 to 5000	250 to 500	500 to 1000	≥ 1000	CC(=O)NS(=O)(=O)c1nc(Cl)ccc1N[C@H](C)c1cc(C)cc2c(=O)n(C)c(N3CCC(F)(F)CC3)nc12 [Compound 78, (R)-N-((6-chloro-3-((1-(2-(4,4-difluoropiperidin-1-yl)-3,6-dimethyl-4-oxo-3,4-dihydroquinazolin-8-yl)ethyl)amino)pyridin-2-yl)sulfonyl)acetamide]
≥ 5000	250 to 500	100 to 250	≥ 1000	Cc1cc([C@@H](C)Nc2ccc(Cl)nc2S(=O)(=O)NC(=O)C2CC2)c2nc(N3Cc4ccc(F)cc4C3)n(C)c(=O)c2c1 [Compound 79, (R)-N-((6-chloro-3-((1-(2-(5-fluoroisoindolin-2-yl)-3,6-dimethyl-4-oxo-3,4-dihydroquinazolin-8-yl)ethyl)amino)pyridin-2-yl)sulfonyl)cyclopropane-carboxamide]
≥ 5000	500 to 1000	100 to 250	≥ 1000	Cc1cc([C@@H](C)Nc2ccc(Cl)nc2S(=O)(=O)NC(=O)C(C)C)c2nc(N3Cc4ccc(F)cc4C3)n(C)c(=O)c2c1 [Compound 80, (R)-N-((6-chloro-3-((1-(2-(5-fluoroisoindolin-2-yl)-3,6-dimethyl-4-oxo-3,4-dihydroquinazolin-8-yl)ethyl)amino)pyridin-2-yl)sulfonyl)isobutyramide]
≥ 5000	250 to 500	< 100	≥ 1000	CCC(=O)NS(=O)(=O)c1nc(Cl)ccc1N[C@H](C)c1cc(C)cc2c(=O)n(C)c(N3Cc4ccc(F)cc4C3)nc12 [Compound 81, (R)-N-((6-chloro-3-((1-(2-(5-fluoroisoindolin-2-yl)-3,6-dimethyl-4-oxo-3,4-dihydroquinazolin-8-yl)ethyl)amino)pyridin-2-yl)sulfonyl)propionamide]
1000 to 5000	500 to 1000	≥ 1000	≥ 1000	Cc1cc([C@@H](C)Nc2ccc(Cl)nc2C(=O)NS(C)(=O)=O)c2nc(-c3cccc(F)c3F)n(C)c(=O)c2c1 [Compound 82, (R)-6-chloro-3-((1-(2-(2,3-difluorophenyl)-3,6-dimethyl-4-oxo-3,4-dihydroquinazolin-8-yl)ethyl)amino)-N-(methylsulfonyl)picolinamide]
1000 to 5000	250 to 500	≥ 1000	≥ 1000	Cc1cc([C@@H](C)Nc2ccc(Cl)nc2C(=O)NS(C)(=O)=O)c2nc(-c3cncc(F)c3)n(C)c(=O)c2c1 [Compound 83, (R)-6-chloro-3-((1-(2-(5-fluoropyridin-3-yl)-3,6-dimethyl-4-oxo-3,4-dihydroquinazolin-8-yl)ethyl)amino)-N-(methylsulfonyl) picolinamide]
1000 to 5000	250 to 500	≥ 1000	≥ 1000	Cc1cc([C@@H](C)Nc2ccc(Cl)nc2C(=O)NS(C)(=O)=O)c2nc(-c3ccc(C)nc3)n(C)c(=O)c2c1 [Compound 84, (R)-6-chloro-3-((1-(3,6-dimethyl-2-(6-methylpyridin-3-yl)-4-oxo-3,4-dihydroquinazolin-8-yl)ethyl)amino)-N-(methylsulfonyl) picolinamide]
≥ 5000	1000 to 5000	≥ 1000	≥ 1000	Cc1cc([C@@H](C)Nc2ccc(Cl)nc2C(=O)NS(C)(=O)=O)c2nc(-c3cccnc3C)n(C)c(=O)c2c1 [Compound 85, (R)-6-chloro-3-((1-(3,6-dimethyl-2-(2-methylpyridin-3-yl)-4-oxo-3,4-dihydroquinazolin-8-yl)ethyl)amino)-N-(methylsulfonyl) picolinamide]
1000 to 5000	500 to 1000	≥ 1000	≥ 1000	Cc1cc([C@@H](C)Nc2ccc(Cl)nc2C(=O)NS(C)(=O)=O)c2nc(-c3cnc(C)nc3)n(C)c(=O)c2c1 [Compound 86, (R)-6-chloro-3-((1-(3,6-dimethyl-2-(2-methylpyrimidin-5-yl)-4-oxo-3,4-dihydroquinazolin-8-yl)ethyl)amino)-N-(methylsulfonyl) picolinamide]
≥ 5000	1000 to 5000	≥ 1000	≥ 1000	C[C@@H](Nc1ccc(Cl)nc1C(=O)NS(C)(=O)=O)c1cc(F)cc2c(=O)n(C)c(-c3cccc(F)c3F)nc12 [Compound 87, (R)-6-chloro-3-((1-(2-(2,3-difluorophenyl)-6-fluoro-3-methyl-4-oxo-3,4-dihydroquinazolin-8-yl)ethyl)amino)-N-(methylsulfonyl) picolinamide]
1000 to 5000	250 to 500	≥ 1000	≥ 1000	Cc1cc([C@@H](C)Nc2ccc(Cl)nc2C(=O)NS(C)(=O)=O)c2nc(-c3ccc(F)cn3)n(C)c(=O)c2c1 [Compound 88, (R)-6-chloro-3-((1-(2-(5-fluoropyridin-2-yl)-3,6-dimethyl-4-oxo-3,4-dihydroquinazolin-8-yl)ethyl)amino)-N-(methylsulfonyl) picolinamide]
1000 to 5000	< 250	100 to 250	500 to 1000	Cc1cc([C@@H](C)Nc2ccc(Cl)nc2C(=O)NS(C)(=O)=O)c2nc(-c3cnc(C)s3)n(C)c(=O)c2c1 [Compound 89, (R)-6-chloro-3-((1-(3,6-dimethyl-2-(2-methylthiazol-5-yl)-4-oxo-3,4-dihydroquinazolin-8-yl)ethyl)amino)-N-(methylsulfonyl) picolinamide]
1000 to 5000	1000 to 5000	≥ 1000	≥ 1000	C[C@@H](Nc1ccc(Cl)nc1C(=O)NS(C)(=O)=O)c1cc(F)cc2c(=O)n(C)c(-c3cncc(F)c3)nc12 [Compound 90, (R)-6-chloro-3-((1-(6-fluoro-2-(5-fluoropyridin-3-yl)-3-methyl-4-oxo-3,4-dihydroquinazolin-8-yl)ethyl)amino)-N-(methylsulfonyl) picolinamide]
1000 to 5000	< 250	250 to 500	≥ 1000	Cc1cc([C@@H](C)Nc2ccc(Cl)nc2C(=O)NS(C)(=O)=O)c2nc(-c3cnc(C)c(F)c3)n(C)c(=O)c2c1 [Compound 91, (R)-6-chloro-3-((1-(2-(5-fluoro-6-methylpyridin-3-yl)-3,6-dimethyl-4-oxo-3,4-dihydroquinazolin-8-yl)ethyl)amino)-N-(methylsulfonyl) picolinamide]
1000 to 5000	< 250	< 100	≥ 1000	Cc1cc([C@@H](C)Nc2ccc(Cl)nc2C(=O)NS(C)(=O)=O)c2nc(C3CCCCC3)n(C)c(=O)c2c1 [Compound 92, (R)-6-chloro-3-((1-(2-cyclohexyl-3,6-dimethyl-4-oxo-3,4-dihydroquinazolin-8-yl)ethyl)amino)-N-(methylsulfonyl) picolinamide]
≥ 5000	< 250	≥ 1000	≥ 1000	Cc1cc([C@@H](C)Nc2ccc(Cl)[nH]c2=O)c2nc(N3Cc4ccc(F)cc4C3)n(C)c(=O)c2c1 [Compound 93, (R)-8-(1-((6-chloro-2-oxo-1,2-dihydropyridin-3-yl)amino)ethyl)-2-(5-fluoroisoindolin-2-yl)-3,6-dimethylquinazolin-4(3H)-one]
≥ 5000	1000 to 5000	≥ 1000	≥ 1000	Cc1cc([C@@H](C)Nc2ccc[nH]c2=O)c2nc(N3Cc4ccc(F)cc4C3)n(C)c(=O)c2c1 [Compound 94, (R)-2-(5-fluoroisoindolin-2-yl)-3,6-dimethyl-8-(1-((2-oxo-1,2-dihydropyridin-3-yl)amino)ethyl)quinazolin-4(3H)-one]
